# From patent publication US11420998B2, “Aromatic-cationic peptides and methods for using same” (Stealth Biotherapeutics Inc., priority 2011, dated 2022)
# Square brackets hold non-standard residues; d marks the D form. Ends that are not written are not given here. Peptide text beside a SMILES is read from it. Dmt = Cc1cc(O)cc(C)c1C[C@H](N)C(=O)O
# Experiments:
# [1] = tested on: several mammalian cell types; settings: energy-independent manner (Zhao et al., 2003); cited from earlier work
# in vivo = test: in vivo
# Protocol: Six weeks after induction of RAS, animals were similarly anesthetized, the degree of stenosis determined by angiography, and subjects were treated with PTRA or sham. Heating pads maintained the animal's body temperature by about 37° C. during surgery, and PTRA and stenting performed under fluoroscopic guidance, as previously described. In addition, ARAS subjects were treated with a continuous intravenous infusion of peptide 0.050 mg/kg or an equal volume of saline vehicle from 30 min before to 3.5 hrs after PTRA or sham. […] Urinary samples were collected before peptide infusion and 210 min after PTRA.
# 4 mL venous whole blood samples were collected from peptide-treated animals at baseline (immediately before peptide infusion), immediately before PTRA, and 30 and 180 min post-reperfusion. Venous blood were drawn using syringes into BD Vacutainer® PST™ Plasma Separation Tubes (lavender top) containing K2EDTA, 10 mL/tube. Tubes were gently inverted 8 times and kept in an ice water bath until centrifugation. Within an hour samples were centrifuged in a swing bucket centrifuge at 1000-1300 RCF (or […]) for 15 min at 4° C. Plasma were harvested from individual blood tubes, placed in a single polypropylene vials (or screw-cap tubes) and stored at approximately −80° C. until assay.
# The plasma concentration of D-Arg-2′,6′-Dmt-Lys-Phe-NH2 was determined using a qualified LC/MS/MS assay in K2-EDTA pig plasma. The assay employed deuterium labeled d5-D-Arg-2′,6′-Dmt-Lys-Phe-NH2 as the analytical internal standard (IS). […] Positive (M+2H)^2+ ions for D-Arg-2′,6′-Dmt-Lys-Phe-NH2 and the IS (d5-D-Arg-2′,6′-Dmt-Lys-Phe-NH2) were monitored in MRM mode. Drug-to-IS peak area ratios for the standards were used to create a linear calibration curve ranging from 2.5 to 1000 ng/mL.
# Peptide IV infusion started at 30 minutes prior to the PTRA procedure and continued for 210 minutes at 0.05 mg/kg/h.
# [2] = tested on: inner mitochondrial membrane; settings: cited from earlier work
# mu-opioid receptor = mu-opioid receptor (Homo sapiens, UniProt P35372); settings: stated without data; assays cited; cited from earlier work
# mu-opioid receptor, sequence (P35372 whole entry, species assumed): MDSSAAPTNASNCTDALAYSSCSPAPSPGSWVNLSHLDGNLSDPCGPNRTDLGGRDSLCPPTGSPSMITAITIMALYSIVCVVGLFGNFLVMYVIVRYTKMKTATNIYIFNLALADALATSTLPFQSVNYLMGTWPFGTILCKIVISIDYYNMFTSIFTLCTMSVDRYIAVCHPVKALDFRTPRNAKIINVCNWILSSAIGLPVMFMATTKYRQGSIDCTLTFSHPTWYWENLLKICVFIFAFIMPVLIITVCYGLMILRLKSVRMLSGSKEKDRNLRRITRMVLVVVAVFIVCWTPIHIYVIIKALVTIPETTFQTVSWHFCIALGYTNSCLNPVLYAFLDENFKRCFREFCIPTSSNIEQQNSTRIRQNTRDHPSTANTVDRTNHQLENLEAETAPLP
compound,measurement,setting,value
"2′,6′-Dmt-D-Arg-Phe-Lys-NH2",penetration of the plasma membrane,[1],readily penetrates
"Cc1cc(O)cc(C)c1C[C@H](NC(=O)[C@H](N)CCCNC(=N)N)C(=O)N[C@@H](CCCCN)C(=O)N[C@@H](Cc1ccccc1)C(N)=O [D-Arg-2′,6′-Dmt-Lys-Phe-NH2] (H-[dR][Dmt]KF-NH2)",Mean peptide Concentration,"in vivo; 0 min from peptide infusion (−30 min from PTRA), 3.5-h IV infusion 0.05 mg/kg/h",BQL
same,Mean peptide Concentration,"in vivo; 30 min from peptide infusion (time of PTRA), IV infusion 0.05 mg/kg/h",100.6 ± 36.2 ng/mL
same,Mean peptide Concentration,"in vivo; 30 min from peptide infusion (time of PTRA), IV infusion 0.05 mg/kg/h, listed as Peptide",100.6 ng/mL
same,level at 0.5 h,"in vivo; pig, plasma, iv, 0.05 mg/kg/h, Mean peptide Concentration, 30 min from peptide infusion (time of PTRA), IV infusion 0.05 mg/kg/h",~100 ng/mL
same,level at 1 h,"in vivo; pig, plasma, iv, 0.05 mg/kg/h, Mean peptide Concentration, 60 min from peptide infusion (30 min from PTRA), IV infusion 0.05 mg/kg/h",118 ± 23.7 ng/mL
same,level at 1.5 h,"in vivo; pig, plasma, iv, 0.05 mg/kg/h, Mean peptide Concentration, 90 min from peptide infusion (60 min from PTRA), IV infusion 0.05 mg/kg/h",125 ± 21.4 ng/mL
same,level at 3.5 h,"in vivo; pig, plasma, iv, 0.05 mg/kg/h, Mean peptide Concentration, 210 min from peptide infusion (180 min from PTRA), IV infusion 0.05 mg/kg/h",111 ± 42 ng/mL
same,time to apparent steady state concentration,in vivo; post start of IV infusion,60 to 90 min
same,concentration in the inner mitochondrial membrane,[2],500-5000 fold
F[dR]FK-NH2,mu-opioid receptor agonist activity,mu-opioid receptor,does not have mu-opioid receptor agonist activity
Tyr-D-Arg-Phe-Lys-NH2,mu-opioid receptor agonist activity,mu-opioid receptor,has mu-opioid receptor agonist activity
